Measured values taken from US20110189266A1, “CORTICOSTEROID MICROVESICLES FOR TREATMENT OF CARDIOVASCULAR DISEASES” (MOUNT SINAI SCHOOL OF MEDICINE OF NEW YORK UNIVERSITY, priority 2008, published 2011).

What was measured:
neo-intimal formation = conditions: prednisone- and Taxus stent-treated animals; Ribichini et al 2007; cited from earlier work
[1] = test system: atherosclerotic plaque permeability, aortic wall; assay: Dynamic contrast enhanced MRI (DCE-MRI) to quantify changes in plaque permeability; type: in vivo, New Zealand White (NZW) rabbits; conditions: before vs two days after administration
[2] = test system: atherosclerotic plaques of the abdominal aorta; assay: 18F-FDG PET/CT of the abdominal aorta (mean SUV), rabbit model of atherosclerosis; type: in vivo, New Zealand White (NZW) rabbits; conditions: single i.v. injection 15 mg/kg
Method: Seventeen male New Zealand White (NZW) rabbits (mean age 7 months; mean weight 3.5±0.2 kg; Covance) were included in this study. Aortic atherosclerotic plaques were induced in 15 NZW rabbits, through a well established model^18, by a combination of 7 months of high cholesterol diet (4.7% palm oil and 0.3% cholesterol-enriched diet; Research Diet Inc.) and a repeated balloon injury of the aorta (two weeks and six weeks after starting the high cholesterol diet). Aortic injury was performed from the aortic arch to the iliac bifurcation with a 4F Fogarty embolectomy catheter introduced through the femoral artery. […]
PET/CT images were analyzed on a Xeleris workstation. […] SUV was calculated by dividing the tissue concentration (kBq/mL) by the injected dose per gram of body weight (kBq/g).
The scans allow the quantification of the standard uptake value (SUV) of ^18F-FDG in the abdominal aorta. The SUV is the decay-corrected tissue concentration of FDG (in kBq/g), corrected for injected FDG dose and body weight (in kBq/g), and is a well-recognized method for quantification of FDG PET data. Prior to start of treatment, the aortas of six atherosclerotic rabbits and two non-atherosclerotic rabbits were measured to establish mean SUV levels of atherosclerotic and non-atherosclerotic rabbits.

| Molecule | neo-intimal formation (neo-intimal formation) | change of DCE-MRI area under the curve (AUC) of the aortic wall [1] | SUV differences between pre, and two and seven days post treatment [2] | SUV change one week post-treatment ([2]; one week post-treatment vs pre, p=0.006 (liposomal), p=0.40 (free)) |
| --- | --- | --- | --- | --- |
| C[C@]12C=CC(=O)C=C1CC[C@@H]1[C@@H]2C(=O)C[C@@]2(C)[C@H]1CC[C@]2(O)C(=O)CO [prednisone] | reduced neo-intimal formation | – | – | – |
| prednisolone phosphate disodium salt [free circulating glucocorticoids] | – | not | no significant SUV differences | no SUV reduction |
